Assay results published in patent publication US9084817B2, “Oral preparation comprising specific organic acid, and method for improvement in elution property and chemical stability of oral preparation” (TORAY INDUSTRIES, INC., priority 2007, dated 2015).

Assay: Water required to dissolve 1 g of organic acid at 20° C. (Japanese Pharmacopoeia solubility)
Type: physicochemical
Experimental: The organic acid 1 g of which requires not less than 30 mL of water to dissolve in at 20° C. refers to such an organic acid that 30 mL or more of water is required to dissolve 1 g of the organic acid within 30 minutes at 20±5° C. by vigorous shaking for 30 seconds each time at 5-minute intervals, in accordance with the description about solubility in the Japanese Pharmacopoeia, 15th Edition, General Notices, page A-13.

O=C(O)/C=C/C(=O)O [Fumaric acid]
Water required to dissolve 1 g of organic acid in at 20° C.: ≥ 100 mL
